Source: PubChem BioAssay AID488836 (Broad Institute, 2010)
Records with an inconclusive call do not appear. The source made the active and inactive calls. No rule for the calls is given here.

tested on: not listed separately; assay: PubChem AID 488836; settings: C. albicans CaCi-2 growth with fluconazole, Alamar Blue, 48 h; at 0.6 µM (top of the series)

| SMILES | activity change, negative = inhibition |
| --- | --- |
| COc1ccc2c(c1)c1nc3n(c(=O)c1n2CC(=O)N1CCC(C)CC1)CCS3 | 13.2% (inactive) |

same assay, conditions: C. albicans CaCi-2 growth with fluconazole, Alamar Blue, 48 h; at 6 µM (top of the series)

| SMILES | activity change, negative = inhibition |
| --- | --- |
| COC(=O)Cn1nc(-c2ccc(Cl)cc2)c2ccccc21 | -11% (inactive) |
| O=C(O)c1c2ccccc2nn1Cc1ccc(Cl)cc1 | -8.46% (inactive) |
| O=S(=O)(c1ccc(Cl)cc1)N1CCN(c2ccnc3cc(Cl)ccc23)CC1 | -15.5% (inactive) |
| O=C(Cn1nc(-c2ccccc2)c2ccccc21)NCc1ccc(Cl)cc1 | -18.4% (inactive) |
| O=C(Cn1c2ccccc2c2nc3n(c(=O)c21)CCS3)NCCc1ccc(Cl)cc1 | -13.4% (inactive) |
| CCOC(=O)c1nn(Cc2ccc(Cl)cc2)c2ccccc12 | -6.26% (inactive) |
| c1ccc(-c2n[nH]c3ccccc23)cc1 | 4.54% (inactive) |
| O=c1c2[nH]c3ccccc3c2nc2n1CCS2 | -39.9% (inactive) |
| O=C(Cn1nc(-c2ccccc2)c2cc(Cl)ccc21)N1CCOCC1 | -5.03% (inactive) |
| CCCNC(=O)Cn1nc(-c2ccccc2)c2ccccc21 | 12.1% (inactive) |
| CCCNC(=O)Cn1nc(-c2ccccc2)c2cc(Cl)ccc21 | 38.1% (inactive) |
| COc1ccc2c(c1)c1nc3n(c(=O)c1n2CC(=O)N1CCC(Cc2ccccc2)CC1)CCS3 | -7.32% (inactive) |
| O=C(Cn1nc(-c2ccccc2)c2ccccc21)N1CCc2ccccc2C1 | -26.7% (inactive) |
| O=C(Cn1c2ccccc2c2nc3n(c(=O)c21)CCCS3)c1ccc(F)cc1 | -14.2% (inactive) |
| O=C(O)c1nn(Cc2ccc(Cl)cc2)c2ccccc12 | -11.2% (inactive) |
| O=C(c1ccc(Cl)cc1)N1CCN(c2cc(C(F)(F)F)nc3ccccc23)CC1 | -20% (inactive) |
| O=C(Cn1nc(C(=O)N2CCCCC2)c2ccccc21)N1CCOCC1 | -5.52% (inactive) |
| COC(=O)Cn1nc(C)c2ccccc21 | -0.315% (inactive) |
| CCOC(=O)c1c2ccccc2nn1Cc1ccc(Cl)cc1 | -7.34% (inactive) |
| Cc1nn(S(C)(=O)=O)c2ccccc12 | -21% (inactive) |
| COc1ccc(OC)c2c(C)cc(N3CCN(C(=O)c4ccc(Cl)cc4)CC3)nc12 | -2.61% (inactive) |

tested on: C. albicans CaCi-2 (fluconazole-resistant clinical isolate) growth with fluconazole, Alamar Blue, 48 h; assay: PubChem AID 488836; settings: not given

| SMILES | AC50 |
| --- | --- |
| COc1ccc(NC(=O)Cn2c3ccccc3c3nc4n(c(=O)c32)CCS4)cc1 | 4.1 µM |
| O=C(Nc1ccc(C(F)(F)F)cc1)N1CCN(c2ccnc3cc(Cl)ccc23)CC1 | 1.81 µM |
| O=C(c1ccc(Cl)cc1)N1CCN(c2ccc(Cl)cc2)CC1 | 6.13 µM |
| O=C(c1cccs1)N1CCN(c2ccnc3cc(Cl)ccc23)CC1 | 2.72 µM |
| COC(=O)Cn1nc(-c2ccc(C)cc2)c2ccccc21 | 0.103 µM |
| Cc1ccc(C(=O)N2CCN(c3ccnc4cc(Cl)ccc34)CC2)cc1 | 2.33 µM |
| O=c1c2[nH]c3ccc(F)cc3c2nc2n1CCS2 | 4.08 µM |
| CC1CCN(C(=O)Cn2c3ccccc3c3nc4n(c(=O)c32)CCCS4)CC1 | > 6 µM (inactive) |
| O=C(c1ccc(Cl)c(Cl)c1)N1CCN(c2ccnc3cc(Cl)ccc23)CC1 | 1.02 µM |
| CC1CCN(C(=O)Cn2c3ccc(F)cc3c3nc4n(c(=O)c32)CCCS4)CC1 | 3.54 µM |
| CCN(CC)C(=O)Cn1c2ccccc2c2nc3n(c(=O)c21)CCS3 | 2.28 µM |
| O=C(c1csc2ccccc12)N1CCN(c2ccnc3cc(Cl)ccc23)CC1 | 1.68 µM |
| O=C(Cn1c2ccccc2c2nc3n(c(=O)c21)CCS3)N1CCCC1 | 2.29 µM |
| COC(=O)Cn1nc(-c2ccccc2)c2ccccc21 | 1.26 µM |
| O=C(c1ccc(Cl)cc1)N1CCN(c2ccnc3cc(Cl)ccc23)CC1 | 0.651 µM |
| O=C(c1ccccc1)N1CCN(c2ccnc3cc(Cl)ccc23)CC1 | 3.35 µM |
| CC1CCN(C(=O)Cn2c3ccccc3c3nc4n(c(=O)c32)CCS4)CC1 | 2.94 µM |
